Measurements taken from patent publication US20080050448A1, “ANTIMICROBIAL CONJUGATES” (priority 2006, published 2008).

Legend:
[1] = test system: Staphylococcus aureus NCTC 6571; test: Lethal photosensitisation of S. aureus by TBO-tiopronin-gold nanoparticle conjugate, white light (and dark controls), viable counting; assay type: cell-based
[2] = test system: Staphylococcus aureus NCTC 6571; test: Lethal photosensitisation of S. aureus by gold nanoparticle-photosensitiser mixtures, white light, viable counting; assay type: cell-based
Experimental: Gold nanoparticles (2.0 nm diameter; British Biocell International) in water (15×10^13 particles per ml) were mixed with an equal volume of an aqueous solution of toluidine blue O (40 μM) and left at room temperature for 15 minutes. 100 μl of the gold-TB solution was added to 100 μl of a suspension of Staphylococcus aureus NCTC 6571 in phosphate buffered saline (PBS) and this was irradiated with white light from a fluorescent white lamp for 10 minutes. Controls consisted of:
(i) TB (final concentration=10 μM) and bacteria, irradiated for the same period of time,
(ii) nanogold (diluted 1:1 with water) and bacteria, irradiated for the same period of time,
(iii) bacteria without TB or nanogold, not irradiated (“control”).
After irradiation, the number of surviving bacteria was determined by viable counting. […] Note that the TB concentration and light energy dose used were designed to give sub-optimal kills so that differences in efficacy of the TB and the TB-nanogold could be discerned. Preliminary experiments using 30 minutes light exposure achieved total kills of the bacterial suspensions in both cases.
Gold nanoparticles of approximately 15 nm in diameter (batches NN1 and NN2 above) were mixed with an equal volume of aqueous toluidine blue O (TB) and left at room temperature for 15 minutes. TB was used at a final concentration of 1, 5, 10, 20 or 50 μM. 100 μl of the TB-gold mixture was added to 100 μl of a suspension of Staphylococcus aureus NCTC 6571 in phosphate buffered saline (PBS) (adjusted to an optical density of 0.05), and samples were irradiated with a fluorescent white light (28 W) for 10 minutes. S. aureus+TB only, and S. aureus+PBS, without photosensitiser or nanogold were used as controls. The final concentration of nanogold used was 1×10^15 particles/ml. After irradiation, the numbers of surviving bacteria were enumerated by viable counting.
The method of Example 2 was repeated using gold nanoparticles of 2 nm diameter (British Biocell International). The final concentration of nanogold used was 4×10^13 particles/ml. […]

For `Cc1cc2nc3ccc(N(C)C)cc3[s+]c2cc1N.[Cl-]` [TB only, toluidine blue O], the “effect on S. aureus” value ([1]; irradiated with white light for any length of time (15, 30, 45 minutes)) was “no effect”, the “concentration at which significant kills of the organism were exhibited (only at this concentration)” value ([1]; white light 30 mins) was 2.0 μm and the “% Kill” value ([2]; 10 min 28 W fluorescent white lamp, 2.0 nm gold, TB final 10 μM) was 93.7%. The “kill of the bacterial suspension” value ([2]; preliminary experiments, 30 minutes light exposure) was “total kills” and the “S. aureus (cfu/ml)” value ([2]; surviving bacteria after 10 min 28 W fluorescent white lamp, 2.0 nm gold, TB final 10 μM) was 8570000 cfu/ml.
